Assay results from ChEMBL document CHEMBL5303573, “Mapping human microbiome drug metabolism by gut bacteria and their genes” (Nature, 2019).

How the values were obtained:
[1] = The drug is tested on Dorea formicigenerans strain: ATCC27755 for biotransformation. The drug concentrations were measured before and after a 12-h incubation by liquid-chromatography-coupled mass spectrometry (LC–MS); conditions: 2 µM
[2] = The drug is tested on Bacteroides caccae strain: ATCC43185 for biotransformation. The drug concentrations were measured before and after a 12-h incubation by liquid-chromatography-coupled mass spectrometry (LC–MS); conditions: 2 µM
[3] = anaerostipes sp., 12 h, 2 µM
Description: The drug is tested on Anaerostipes sp. strain: fecal isolate for biotransformation. The drug concentrations were measured before and after a 12-h incubation by liquid-chromatography-coupled mass spectrometry (LC–MS)

[4] = bacteroides intestinalis, 12 h, 2 µM
Description: The drug is tested on Bacteroides intestinalis strain: DSM17393 for biotransformation. The drug concentrations were measured before and after a 12-h incubation by liquid-chromatography-coupled mass spectrometry (LC–MS)

[5] = segatella copri, 12 h, 2 µM
Description: The drug is tested on Prevotella copri strain: DSM18205 for biotransformation. The drug concentrations were measured before and after a 12-h incubation by liquid-chromatography-coupled mass spectrometry (LC–MS)

[6] = The drug is tested on Bacteroides vulgatus strain: ATCC8482 for biotransformation. The drug concentrations were measured before and after a 12-h incubation by liquid-chromatography-coupled mass spectrometry (LC–MS); conditions: phocaeicola vulgatus, 2 µM
[7] = The drug is tested on Blautia luti strain: DSM14534 for biotransformation. The drug concentrations were measured before and after a 12-h incubation by liquid-chromatography-coupled mass spectrometry (LC–MS); format: ADME; design: dose 2 uM, timepoint 0 vs 12 hours; conditions: 2 µM
[8] = bacteroides fragilis, 12 h, 2 µM
Description: The drug is tested on Bacteroides fragilis strain: DS-208 for biotransformation. The drug concentrations were measured before and after a 12-h incubation by liquid-chromatography-coupled mass spectrometry (LC–MS)

[9] = The drug is tested on Clostridium symbiosum strain: ATCC14940 for biotransformation. The drug concentrations were measured before and after a 12-h incubation by liquid-chromatography-coupled mass spectrometry (LC–MS); conditions: 2 µM
[10] = The drug is tested on Odoribacter splanchnicus strain: fecal isolate for biotransformation. The drug concentrations were measured before and after a 12-h incubation by liquid-chromatography-coupled mass spectrometry (LC–MS); conditions: 2 µM
[11] = The drug is tested on Bacteroides cellulosilyticus strain: DSM14838 for biotransformation. The drug concentrations were measured before and after a 12-h incubation by liquid-chromatography-coupled mass spectrometry (LC–MS); conditions: 2 µM
[12] = The drug is tested on Bacteroides fragilis strain: HMW615 for biotransformation. The drug concentrations were measured before and after a 12-h incubation by liquid-chromatography-coupled mass spectrometry (LC–MS); conditions: 2 µM
[13] = The drug is tested on Bacteroides uniformis strain: ATCC8492 for biotransformation. The drug concentrations were measured before and after a 12-h incubation by liquid-chromatography-coupled mass spectrometry (LC–MS); conditions: 2 µM
[14] = The drug is tested on Bacteroides fragilis strain: HMW610 for biotransformation. The drug concentrations were measured before and after a 12-h incubation by liquid-chromatography-coupled mass spectrometry (LC–MS); conditions: 2 µM
[15] = akkermansia muciniphila, 12 h, 2 µM
Description: The drug is tested on Akkermansia muciniphila strain: ATCC BAA-835 for biotransformation. The drug concentrations were measured before and after a 12-h incubation by liquid-chromatography-coupled mass spectrometry (LC–MS)

[16] = The drug is tested on Enterobacter cancerogenus strain: ATCC35316 for biotransformation. The drug concentrations were measured before and after a 12-h incubation by liquid-chromatography-coupled mass spectrometry (LC–MS); conditions: 2 µM
[17] = The drug is tested on Coprococcus comes strain: ATCC27758 for biotransformation. The drug concentrations were measured before and after a 12-h incubation by liquid-chromatography-coupled mass spectrometry (LC–MS); format: ADME; design: dose 2 uM, timepoint 0 vs 12 hours; conditions: 2 µM
[18] = The drug is tested on Bacteroides xylanisolvens strain: DSM18836 for biotransformation. The drug concentrations were measured before and after a 12-h incubation by liquid-chromatography-coupled mass spectrometry (LC–MS); conditions: 2 µM

Structure (SMILES)	Bacterial Biotransformation [1]	Bacterial Biotransformation [2]	Bacterial Biotransformation [3]	Bacterial Biotransformation [4]	Bacterial Biotransformation [5]	Bacterial Biotransformation [6]	Bacterial Biotransformation [7]	Bacterial Biotransformation [8]	Bacterial Biotransformation [9]	Bacterial Biotransformation [10]	Bacterial Biotransformation [11]	Bacterial Biotransformation [12]	Bacterial Biotransformation [13]	Bacterial Biotransformation [14]	Bacterial Biotransformation [15]	Bacterial Biotransformation [16]	Bacterial Biotransformation [17]	Bacterial Biotransformation [18]
CC(C)(C(=O)O)c1ccc(C(O)CCCN2CCC(C(O)(c3ccccc3)c3ccccc3)CC2)cc1 (stereo unspecified) [FEXOFENADINE]	Compound NOT metabolized	Compound NOT metabolized	Compound NOT metabolized	Compound NOT metabolized	Compound NOT metabolized	Compound NOT metabolized	Compound NOT metabolized	Compound NOT metabolized	Compound NOT metabolized	Compound NOT metabolized	Compound NOT metabolized	Compound NOT metabolized	Compound NOT metabolized	Compound NOT metabolized	Compound NOT metabolized			
Nc1nnc(-c2cccc(Cl)c2Cl)c(N)n1 [LAMOTRIGINE]	Compound NOT metabolized	Compound NOT metabolized	Compound NOT metabolized	Compound NOT metabolized	Compound NOT metabolized		Compound NOT metabolized	Compound NOT metabolized	Compound NOT metabolized			Compound NOT metabolized	Compound NOT metabolized	Compound NOT metabolized	Compound NOT metabolized	Compound NOT metabolized	Compound NOT metabolized	Compound NOT metabolized
COc1ccc2cc([C@H](C)C(=O)O)ccc2c1 [NAPROXEN]	Compound NOT metabolized	Compound NOT metabolized	Compound NOT metabolized	Compound NOT metabolized		Compound NOT metabolized	Compound NOT metabolized	Compound NOT metabolized	Compound NOT metabolized	Compound NOT metabolized	Compound NOT metabolized	Compound metabolized	Compound NOT metabolized	Compound metabolized	Compound NOT metabolized		Compound NOT metabolized	Compound NOT metabolized
CC(C)(C)NC(=O)[C@H]1CC[C@H]2[C@@H]3CC[C@H]4NC(=O)C=C[C@]4(C)[C@H]3CC[C@]12C [FINASTERIDE]	Compound NOT metabolized	Compound NOT metabolized	Compound NOT metabolized	Compound NOT metabolized	Compound NOT metabolized	Compound metabolized	Compound NOT metabolized	Compound metabolized	Compound NOT metabolized	Compound metabolized	Compound NOT metabolized	Compound metabolized	Compound metabolized	Compound metabolized	Compound metabolized	Compound NOT metabolized	Compound NOT metabolized	Compound metabolized
CC(C)[C@H]1CC[C@H](C(=O)N[C@H](Cc2ccccc2)C(=O)O)CC1 [NATEGLINIDE]	Compound NOT metabolized	Compound NOT metabolized	Compound NOT metabolized		Compound NOT metabolized	Compound metabolized		Compound metabolized	Compound NOT metabolized	Compound metabolized		Compound metabolized	Compound metabolized	Compound metabolized	Compound NOT metabolized	Compound NOT metabolized	Compound NOT metabolized	Compound NOT metabolized
CN1CCc2c(c3ccccc3n2Cc2ccccc2)C1.CN1CCc2c(c3ccccc3n2Cc2ccccc2)C1.O=S(=O)(O)c1cccc2c(S(=O)(=O)O)cccc12	Compound NOT metabolized	Compound NOT metabolized	Compound NOT metabolized	Compound NOT metabolized	Compound NOT metabolized	Compound NOT metabolized	Compound NOT metabolized	Compound NOT metabolized	Compound NOT metabolized	Compound NOT metabolized		Compound NOT metabolized	Compound NOT metabolized	Compound NOT metabolized	Compound NOT metabolized		Compound NOT metabolized	Compound NOT metabolized
Cc1ccc(NC(=O)c2ccc(CN3CCN(C)CC3)cc2)cc1Nc1nccc(-c2cccnc2)n1 [IMATINIB]	Compound NOT metabolized	Compound NOT metabolized	Compound NOT metabolized	Compound NOT metabolized	Compound NOT metabolized	Compound metabolized	Compound NOT metabolized	Compound NOT metabolized		Compound NOT metabolized	Compound NOT metabolized		Compound NOT metabolized	Compound NOT metabolized	Compound NOT metabolized	Compound NOT metabolized	Compound NOT metabolized	Compound metabolized
CN(C)C(=O)Oc1cccc([N+](C)(C)C)c1.[Br-] [NEOSTIGMINE BROMIDE]	Compound NOT metabolized	Compound NOT metabolized	Compound NOT metabolized	Compound NOT metabolized			Compound NOT metabolized	Compound metabolized	Compound NOT metabolized	Compound NOT metabolized	Compound NOT metabolized		Compound metabolized				Compound NOT metabolized	
CCN(CC)CCOC(=O)C1(C2CCCCC2)CCCCC1 [DICYCLOMINE]	Compound NOT metabolized	Compound NOT metabolized	Compound NOT metabolized		Compound NOT metabolized	Compound metabolized	Compound NOT metabolized	Compound NOT metabolized						Compound NOT metabolized		Compound NOT metabolized	Compound NOT metabolized	Compound metabolized
CC(=O)OCC(CCn1cnc2cnc(N)nc21)COC(C)=O [FAMCICLOVIR]	Compound NOT metabolized	Compound metabolized	Compound NOT metabolized	Compound metabolized	Compound metabolized	Compound metabolized	Compound NOT metabolized	Compound metabolized	Compound NOT metabolized	Compound metabolized	Compound metabolized	Compound metabolized	Compound metabolized	Compound metabolized	Compound NOT metabolized	Compound NOT metabolized	Compound NOT metabolized	Compound metabolized
